According to the CheMixHub viscosity set:
Where “and” joins values, the source holds several entries; their conditions need not be identical. Equal values may be shown once.

Assay: xn = mol fraction of the nth substance listed

[Cl-].[Li+] + O
Settings | viscosity
293.15 K, 101 kPa, x1 = 0.17 | 4.51 mPa·s
293.15 K, 101 kPa, x1 = 0.19 | 6.01 mPa·s
293.15 K, 101 kPa, x1 = 0.2 | 7.36 mPa·s
293.15 K, 101 kPa, x1 = 0.22 | 9.66 mPa·s
293.15 K, 101 kPa, x1 = 0.23 | 10.29 mPa·s
293.15 K, 101 kPa, x1 = 0.24 | 11.28 mPa·s and 12.73 mPa·s
293.15 K, 101 kPa, x1 = 0.25 | 14.55 mPa·s
293.15 K, 101 kPa, x1 = 0.26 | 15.87 mPa·s
293.15 K, 101 kPa, x1 = 0.27 | 17.76 mPa·s
298.15 K, 101 kPa, x1 = 0.26 | 16.51 mPa·s
298.15 K, 101.33 kPa, x1 = 0.2626 | 10.73 mPa·s
303.15 K, 101 kPa, x1 = 0.17 | 3.42 mPa·s
303.15 K, 101 kPa, x1 = 0.19 | 4.61 mPa·s
303.15 K, 101 kPa, x1 = 0.2 | 5.59 mPa·s
303.15 K, 101 kPa, x1 = 0.22 | 7.24 mPa·s
303.15 K, 101 kPa, x1 = 0.23 | 7.44 mPa·s
303.15 K, 101 kPa, x1 = 0.24 | 8.19 mPa·s and 9.29 mPa·s
303.15 K, 101 kPa, x1 = 0.25 | 10.53 mPa·s
303.15 K, 101 kPa, x1 = 0.26 | 11.37 mPa·s
303.15 K, 101 kPa, x1 = 0.27 | 12.85 mPa·s
310.15 K, 101 kPa, x1 = 0.000205 | 0.7179 mPa·s
310.15 K, 101 kPa, x1 = 0.00126 | 0.7026 mPa·s
310.15 K, 101 kPa, x1 = 0.001978 | 0.7036 mPa·s
310.15 K, 101 kPa, x1 = 0.002695 | 0.6772 mPa·s
310.15 K, 101 kPa, x1 = 0.003679 | 0.6492 mPa·s
310.15 K, 101 kPa, x1 = 0.005197 | 0.5792 mPa·s
310.15 K, 101 kPa, x1 = 0.005988 | 0.5574 mPa·s
313.15 K, 101 kPa, x1 = 0.17 | 2.73 mPa·s
313.15 K, 101 kPa, x1 = 0.19 | 3.59 mPa·s
313.15 K, 101 kPa, x1 = 0.2 | 4.32 mPa·s
313.15 K, 101 kPa, x1 = 0.22 | 5.44 mPa·s
313.15 K, 101 kPa, x1 = 0.23 | 5.67 mPa·s
313.15 K, 101 kPa, x1 = 0.24 | 6.36 mPa·s and 6.96 mPa·s
313.15 K, 101 kPa, x1 = 0.25 | 7.83 mPa·s
313.15 K, 101 kPa, x1 = 0.26 | 8.46 mPa·s
313.15 K, 101 kPa, x1 = 0.27 | 9.36 mPa·s
323.15 K, 101 kPa, x1 = 0.17 | 2.26 mPa·s
323.15 K, 101 kPa, x1 = 0.19 | 2.94 mPa·s
323.15 K, 101 kPa, x1 = 0.2 | 3.49 mPa·s
323.15 K, 101 kPa, x1 = 0.22 | 4.37 mPa·s
323.15 K, 101 kPa, x1 = 0.23 | 4.48 mPa·s
323.15 K, 101 kPa, x1 = 0.24 | 4.99 mPa·s and 5.38 mPa·s
323.15 K, 101 kPa, x1 = 0.25 | 6.06 mPa·s
323.15 K, 101 kPa, x1 = 0.26 | 6.55 mPa·s
323.15 K, 101 kPa, x1 = 0.27 | 7.22 mPa·s

CCCC(=O)O + C1CCCCC1
303.15 K, 101 kPa
Settings | viscosity [mPa·s]
x2 = 0.101 | 1.196
x2 = 0.1921 | 1.069
x2 = 0.2875 | 0.9914
x2 = 0.3938 | 0.9189
x2 = 0.4993 | 0.867
x2 = 0.591 | 0.8407
x2 = 0.6993 | 0.7948
x2 = 0.8074 | 0.7912
x2 = 0.9011 | 0.7924

CCCCNCCCC + CO
viscosity [mPa·s], 101 kPa
Settings | x2 = 0.0931 | x2 = 0.1959 | x2 = 0.2948 | x2 = 0.3963 | x2 = 0.4955 | x2 = 0.6075 | x2 = 0.7011 | x2 = 0.7979 | x2 = 0.9185
303.15 K | 0.745 | 0.725 | 0.706 | 0.689 | 0.663 | 0.639 | 0.609 | 0.579 | 0.548
313.15 K | 0.643 | 0.626 | 0.61 | 0.595 | 0.569 | 0.549 | 0.525 | 0.501 | 0.476
323.15 K | 0.543 | 0.528 | 0.513 | 0.498 | 0.483 | 0.467 | 0.452 | 0.435 | 0.413

C1CC[C@H]2CCCC[C@H]2C1 + O=C1CCCCC1
viscosity [mPa·s], 101.3 kPa
Settings | 293.15 K | 303.15 K
x2 = 0.05 | 3.262 | 2.558
x2 = 0.1446 | 3.118 | 2.471
x2 = 0.2281 | 3.006 | 2.399
x2 = 0.35 | 2.863 | 2.302
x2 = 0.4482 | 2.767 | 2.231
x2 = 0.5559 | 2.68 | 2.159
x2 = 0.6271 | 2.634 | 2.115
x2 = 0.7252 | 2.586 | 2.06
x2 = 0.8051 | 2.56 | 2.019
x2 = 0.8571 | 2.549 | 1.995
x2 = 0.9322 | 2.543 | 1.964

COCCO + CCOC(C)=O
viscosity [mPa·s], 101 kPa
Settings | x1 = 0.0974 | x1 = 0.1945 | x1 = 0.2964 | x1 = 0.3997 | x1 = 0.4973 | x1 = 0.5922 | x1 = 0.6956 | x1 = 0.8008 | x1 = 0.9012
298.15 K | 0.47 | 0.514 | 0.572 | 0.644 | 0.736 | 0.838 | 0.992 | 1.19 | 1.421
303.15 K | 0.444 | 0.484 | 0.536 | 0.601 | 0.683 | 0.775 | 0.912 | 1.086 | 1.286
308.15 K | 0.42 | 0.456 | 0.514 | 0.564 | 0.636 | 0.719 | 0.84 | 0.994 | 1.173

CCOC(=O)C(=O)OCC + C1CCOC1
viscosity [mPa·s], 101 kPa
Settings | x1 = 0.0955 | x1 = 0.2037 | x1 = 0.3007 | x1 = 0.4056 | x1 = 0.513 | x1 = 0.6056 | x1 = 0.7083 | x1 = 0.7994 | x1 = 0.9082
303.15 K | 0.506 | 0.591 | 0.683 | 0.795 | 0.916 | 1.03 | 1.173 | 1.298 | 1.472
313.15 K | 0.453 | 0.529 | 0.607 | 0.698 | 0.801 | 0.893 | 1.006 | 1.107 | 1.237
323.15 K | 0.414 | 0.479 | 0.544 | 0.619 | 0.701 | 0.782 | 0.872 | 0.954 | 1.057

CCCCBr + c1ccccc1
101 kPa
Settings | viscosity [mPa·s]
298.15 K, x1 = 0.066 | 0.588
298.15 K, x1 = 0.1 | 0.583
298.15 K, x1 = 0.134 | 0.574
308.15 K, x1 = 0.066 | 0.518
308.15 K, x1 = 0.1 | 0.515
308.15 K, x1 = 0.134 | 0.51
308.15 K, x2 = 0.094 | 0.5122
308.15 K, x2 = 0.2084 | 0.5022
308.15 K, x2 = 0.2997 | 0.4939
308.15 K, x2 = 0.395 | 0.4879
308.15 K, x2 = 0.5053 | 0.4828
308.15 K, x2 = 0.5954 | 0.4805
308.15 K, x2 = 0.6993 | 0.4823
308.15 K, x2 = 0.8012 | 0.4853
308.15 K, x2 = 0.9023 | 0.4943
318.15 K, x1 = 0.066 | 0.459
318.15 K, x1 = 0.1 | 0.457
318.15 K, x1 = 0.134 | 0.454
323.15 K, x1 = 0.066 | 0.432
323.15 K, x1 = 0.1 | 0.431
323.15 K, x1 = 0.134 | 0.428

CCOC(=O)C(=O)OCC + CCCCCCCCCCO
303.15 K, 101.33 kPa
Settings | viscosity [mPa·s]
x1 = 0.1042 | 6.782
x1 = 0.1986 | 5.372
x1 = 0.2934 | 4.324
x1 = 0.401 | 3.516
x1 = 0.5111 | 2.851
x1 = 0.5985 | 2.488
x1 = 0.7108 | 2.078
x1 = 0.8081 | 1.837
x1 = 0.8863 | 1.691

COCCO + CC(C)CO
Settings | viscosity [mPa·s]
303.15 K, 101.3 kPa, x1 = 0.0962 | 2.478
303.15 K, 101.3 kPa, x1 = 0.2087 | 2.104
303.15 K, 101.3 kPa, x1 = 0.328 | 1.823
303.15 K, 101.3 kPa, x1 = 0.433 | 1.653
303.15 K, 101.3 kPa, x1 = 0.5976 | 1.493
303.15 K, 101.3 kPa, x1 = 0.6411 | 1.468
303.15 K, 101.3 kPa, x1 = 0.7261 | 1.431
303.15 K, 101.3 kPa, x1 = 0.8566 | 1.398
303.15 K, 101.3 kPa, x1 = 0.9229 | 1.391
308.15 K, 101.33 kPa, x1 = 0.1438 | 1.902
308.15 K, 101.33 kPa, x1 = 0.2792 | 1.664
308.15 K, 101.33 kPa, x1 = 0.3329 | 1.595
308.15 K, 101.33 kPa, x1 = 0.505 | 1.422
308.15 K, 101.33 kPa, x1 = 0.6648 | 1.32
308.15 K, 101.33 kPa, x1 = 0.7249 | 1.292
308.15 K, 101.33 kPa, x1 = 0.7936 | 1.264
308.15 K, 101.33 kPa, x1 = 0.8977 | 1.231
